In general, inhibition refers to the share of the control response that was lost under treatment.

The test system of one data set is U-2 OS cells. Nature of the data set: modified alkaline comet assay (OGG1-specific lesions). As to conditions: 10 µM, 24 or 72 h. The data set is classed as cell-based. The method, then:
The modified comet assay was used to determine relative amounts of OGG1-specific substrates (e.g., 8-oxo-dG) within cellular DNA[9]. U-2 OS cells were transfected with siRNA for 72 h and/or treated with DMSO/500 nM TH1579 for 24 h prior to harvesting by trypsinization. For experiments with TH5427, cells were treated for 24 or 72 h with 10 µM compound.
In brief, 120 µL of 1% agarose in PBS was added to one end of a fully-frosted microscope slide (ThermoFisher Scientific) and protected with a 24 × 40 mm coverslip to form the first layer. Once solidified at 4 °C, the second layer was made by mixing 400 µL of 1.2% low-melting agarose in PBS with 100 µL of a 1 × 10^6 cells/mL suspension in PBS kept at 37 °C. The coverslip was removed and 80 µL was added on top of the first layer, spread with a coverslip, and left to solidify at 4 °C for 5–10 minutes. Two slides were made for each condition. […]
The slides were visualized using a 10x objective and a Zeiss LSM 780 confocal or Zeiss Axiovert 35 microscope. Comets were analyzed with OpenComet (www.cometbio.org/) or Comet Assay IV (http://www.perceptive.co.uk/products/comet-assay-iv/) software and the tail moments (tail length x percent DNA in the tail) were automatically calculated. […] At least 100 cells were analyzed for each condition per replicate.

For another data set, the target named is T1, dCTPase (Homo sapiens, UniProt Q9H773).
T1 construct: His-tag (N, cleaved yes); made in house; host or cells: E. coli BL21 (DE3) R3 pRARE2
T1 sequence (Q9H773 1-170): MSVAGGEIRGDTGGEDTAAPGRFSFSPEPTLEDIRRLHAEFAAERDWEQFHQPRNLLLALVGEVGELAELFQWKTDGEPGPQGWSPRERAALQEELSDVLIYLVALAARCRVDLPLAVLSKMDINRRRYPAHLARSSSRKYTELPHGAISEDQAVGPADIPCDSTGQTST
The experiment in a line: phosphohydrolase selectivity, malachite green assay. The data set is classed as biochemical. The method, then: (§1) The selectivity assay for TH5427 against similar pyrophosphohydrolases was performed with MTH1, NUDT9, NUDT2, NUDT12, NUDT14, NUDT15, NUDT18, ITPase, dCTPase and dUTPase[9]. All analyses were performed by malachite green assay following 30 min incubation at room temperature in reaction buffer (100 mM Tris Acetate, pH 7.5, 40 mM NaCl, 10 mM MgAc, 1 mM DTT) with 100 µM TH5427 and preferred substrates for each enzyme (4.75 nM MTH1 with 100 µM dGTP, 8 nM NUDT15 with 100 µM dGTP, 8 nM NUDT2 with 16 µM AP4A, 2 nM NUDT5 with 50 µM ADPR, 20 nM NUDT9 with 50 µM ADPR, 20 nM NUDT12 with 50 µM NADH, 2 nM NUDT14 with 50 µM ADPR, 200 nM NUDT18 with 50 µM 8-oxo-dGTP, 0.2 nM ITPase with […], 35 nM dCTPase with 35 µM dCTP, and 1 nM dUTPase with 12.5 µM dUTP). MTH1, NUDT15, NUDT18, ITPase, dCTPase and dUTPase reactions were coupled with 0.2 U/mL pyrophosphatase, while NUDT2, NUDT5, NUDT9, NUDT12, and NUDT14 reactions were coupled by bovine intestinal phosphatase (10 U/mL).

The target in a further data set is T2, NUDT14 (Homo sapiens, UniProt O95848).
T2 construct: His-tag (N); made in house; host or cells: E. coli BL21 (DE3) R3 pRARE2
T2 sequence (O95848 1-222): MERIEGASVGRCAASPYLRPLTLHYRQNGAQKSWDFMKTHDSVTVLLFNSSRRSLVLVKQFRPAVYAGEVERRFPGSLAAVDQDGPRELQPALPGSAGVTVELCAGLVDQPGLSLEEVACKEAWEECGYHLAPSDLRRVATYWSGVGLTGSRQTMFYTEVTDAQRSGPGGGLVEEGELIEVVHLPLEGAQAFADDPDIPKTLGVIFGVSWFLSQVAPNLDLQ
The data set is described as above. The format is biochemical. The method, then: as §1

For another data set, the target named is T3, NUDT12 (Homo sapiens, UniProt Q9BQG2).
T3 construct: His-tag (N); made in house; host or cells: E. coli BL21 (DE3) R3 pRARE2
T3 sequence (Q9BQG2 whole entry): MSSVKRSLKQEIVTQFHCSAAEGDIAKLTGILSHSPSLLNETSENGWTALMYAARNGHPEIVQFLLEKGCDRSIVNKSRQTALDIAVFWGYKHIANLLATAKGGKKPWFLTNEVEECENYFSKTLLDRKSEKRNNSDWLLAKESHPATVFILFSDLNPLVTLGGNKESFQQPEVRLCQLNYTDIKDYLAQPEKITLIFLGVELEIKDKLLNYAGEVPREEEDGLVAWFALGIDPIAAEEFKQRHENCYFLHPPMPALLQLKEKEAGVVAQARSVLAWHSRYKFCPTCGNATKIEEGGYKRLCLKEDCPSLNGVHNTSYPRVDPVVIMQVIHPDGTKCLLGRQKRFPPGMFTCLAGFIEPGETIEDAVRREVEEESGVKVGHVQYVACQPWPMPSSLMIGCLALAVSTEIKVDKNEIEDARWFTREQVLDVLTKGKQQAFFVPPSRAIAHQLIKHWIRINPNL
Described as above. The data set is classed as biochemical. The method, then: as §1

For another data set, the target named is T4, NUDT9 (Homo sapiens, UniProt Q9BW91).
T4 construct: His-tag (N); made in house; host or cells: E. coli BL21 (DE3) R3 pRARE2
T4 sequence (Q9BW91 47-350): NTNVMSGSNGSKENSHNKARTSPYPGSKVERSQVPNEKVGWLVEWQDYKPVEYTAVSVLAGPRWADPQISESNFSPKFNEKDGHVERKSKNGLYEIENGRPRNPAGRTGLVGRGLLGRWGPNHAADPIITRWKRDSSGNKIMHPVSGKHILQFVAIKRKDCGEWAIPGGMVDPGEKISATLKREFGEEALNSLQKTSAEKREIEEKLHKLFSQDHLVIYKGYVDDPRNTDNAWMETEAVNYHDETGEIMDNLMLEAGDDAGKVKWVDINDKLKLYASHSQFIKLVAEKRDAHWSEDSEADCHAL
The data set is described as above. As to conditions: 100 µM. The data set is classed as biochemical. The method, then: as §1

SMILES strings stand for the structures.

Consider `Cn1c(=O)c2c(nc(N3CCNCC3)n2Cc2nnc(-c3ccc(Cl)c(Cl)c3)o2)n(C)c1=O` [TH5427], for which the “OGG1-specific DNA lesions” value with U-2 OS cells is reported as “nor increased OGG1-specific DNA lesions”. The inhibition at 100 µM stood at 39% at dCTPase, 38% against NUDT14 and 66% against NUDT12. Moreover, the “effect on NUDT9-mediated hydrolysis of ADPR” value on NUDT9 is reported as “no effect”.

The values are drawn from paper PMC5772648, “Targeted NUDT5 inhibitors block hormone signaling in breast cancer cells” (Nature Communications, 2018).
